Assays:
PDE4B1 = biological target: T1, PDE4B1 (Homo sapiens, UniProt Q07343); assay: Inhibition of PDE4 activity (PDE4B1, SPA assay); type: biochemical; conditions: recombinant PDE4B1, 0.5 μM cAMP; read-out: PDE4B1 Inhibitory values measured as -logIC50 (converted)
T1 construct: made in house; host or cells: SF21 insect cells (baculovirus; virus made in SF9 cells, pCR-Bac vector)
Description: Method for Measuring Inhibition of PDE4 Activity
The PDE4B1 (GB no. L20966) was a gift of Prof. M. Conti (Stanford University, USA). It was amplified from the original plasmid (pCMV5) via PCR with primers Rb18 (5′-[…]-3′) and Rb10 (5′-[…]-3′) and cloned into the pCR-Bac vector (Invitrogen, Groningen, NL).
The recombinant baculovirus was prepared by means of homologous recombination in SF9 insect cells. The expression plasmids were cotransfected with Baculo-Gold DNA (Pharmingen, Hamburg) using a standard protocol (Pharmingen, Hamburg). Wt virus-free recombinant virus supernatants were selected using plaque assay methods. After that, high-titre virus supernatants were prepared by amplifying 3 times. PDE4B1 was expressed in SF21 cells by infecting 2×10^6 cells/ml with an MOI (multiplicity of infection) between 1 and 10 in the serum-free SF900 medium (GIBCO Life Technologies, Karlsruhe, Germany) The cells were cultured at 28° C. for 48-72 hours, after which they were pelleted for 5-10 min at 1000×g and 4° C.
The SF21 insect cells were resuspended, at a concentration of approx. 10^7 cells/ml, in ice-cold (4° C.) homogenization buffer (20 mM Tris, pH 8.2, containing the following additions: 140 mM NaCl, 3.8 mM KCl, 1 mM EGTA, 1 mM MgCl2, 10 mM β-mercaptoethanol, 2 mM benzamidine, 0.4 mM Pefablock, 10 μM leupeptin, 10 μM pepstatin A, 5 μM trypsin inhibitor) and disrupted by ultrasonication. The homogenate was then centrifuged for 10 min at 1000×g and the supernatant was stored at −80° C. until subsequent use (see below). The protein content was determined by the Bradford method (BioRad, Munich) using BSA (Bovine serum albumin) as the standard.
PDE4B1 activities were measured in a 96-well platform using SPA (scintillation proximity assay) yttrium silicate beads (RPNQ1050 from GE Healthcare). In a first step the PDE activity operated hydrolysis of either [^3H] cAMP (substrate) into […]. In a second step substrate and product were distinguished following addition of SPA yttrium silicate beads. […] Close proximity of bound [^3H] […] The test volume was 100 μl and finally contained 20 mM Tris buffer (pH 7.4), 0.1 mg/ml of BSA, 5 mM Mg^2+, 0.5 μM cAMP (including about 50,000 cpm of [3H]cAMP) as substrate, 1 μl of the respective substance dilution in DMSO and sufficient recombinant PDE (1000×g supernatant, see above) to ensure that 10-20% of the cAMP was converted under the said experimental conditions. […] After a preincubation of 5 min at 37° C., the reaction was commenced by adding the substrate (cAMP) and the assays were incubated for a further 15 min. Reactions were terminated by adding SPA beads (50 μl). In agreement with the manufacturer's instructions, the SPA beads had previously been resuspended in water, but were then diluted 1:3 (v/v) in water. This diluted solution further contained 3 mM IBMX (isobutylmethylxanthine) to ensure a complete block of PDE activity. Once the beads were sedimented (>30 min), the MTP's (micro titerplate) were analyzed in commercially available […]. The corresponding IC50 values of the compounds for inhibition of PDE4B1 activity were determined from the concentration-effect curves by means of non-linear regression.
(§1) The numbers of the compounds correspond to the numbers of the examples.

human PDE5 = biological target: T2, human PDE5 (Homo sapiens, UniProt O76074); assay: Inhibition of PDE5 activity (platelet lysate, SPA assay); type: biochemical; conditions: 0.5 μM cGMP, read-out: PDE5 Inhibitory values measured as -logIC50 (converted)
T2 construct: from tissue; host or cells: human platelets from fresh donor blood (platelet lysate)
Description: Method for Measuring Inhibition of PDE5 Activity
As a source for human PDE5, platelets were used. For that purpose, 150 ml fresh blood from human donors anticoagulated with citrate [final concentration 0.3% (w/v)] was centrifuged at 200 g for 10 min to obtain the so-called platelet-rich-plasma (PRP) as a supernatant. […] After centrifugation (1,400 g, 10 min) the cell pellet was resuspended in 3 ml homogenization buffer (NaCl 140 mM, KCl 3.8 mM, EGTA (ethylene glycol tetraacetic acid) 1 mM, MgCl2 1 mM, Tris-HCl 20 mM, beta-mercaptoethanol 1 mM, pH 8.2) plus protease-inhibitor mix resulting in final concentrations of 0.5 mM Pefablock (Roche), 10 μM Leupeptin, 5 μM Trypsine inhibitor, 2 mM Benzamidin and 10 μM Pepstatin A. The suspension was sonicated and thereafter centrifuged for 15 min at 10,000 g. The resulting supernatant (platelet lysate) was used for enzymatic assays.
PDE5 activities were measured in a 96-well platform using SPA (scintillation proximity assay) yttrium silicate beads (RPNQ1050 from GE Healthcare). In a first step the PDE activity operated hydrolysis of either [^3H] cGMP (substrate) into [^3H] 5′GMP. In a second step substrate and product were distinguished following addition of SPA yttrium silicate beads. Indeed, in the presence of zinc sulphate the linear [^3H] […] Close proximity of bound [^3H] […] The test volume was 100 μl and contained 20 mM Tris buffer (pH 7.4), 0.1 mg of BSA (bovine serum albumin)/ml, 5 mM Mg^2+, 1 μM motapizone (PDE3 Inhibitor), 10 nM PDE2 inhibitor 2-(3,4-dimethoxybenzyl)-7-[(1R,2R)-2-hydroxy-1-(2-phenylethyl)propyl]-5-methylimidazo[5,1-f][1,2,4]triazin-4(3H)-one, 0.5 μM cGMP (cyclic guanosine monophosphate) (including about 50,000 cpm of [3H]cGMP as a tracer) (substrate), 1 μl of the respective compound dilution in dimethylsulfoxide (DMSO) and sufficient PDE5-containing platelet lysat (10,000×g supernatant, see above) to ensure that 10-20% of the cGMP was converted under the said experimental conditions. […] After a preincubation of 5 min at 37° C., the reaction was commenced by adding the substrate (cGMP) and the assay was incubated for a further 15 min. The reaction was terminated by adding SPA beads (50 μl). In agreement with the manufacturer's instructions, the SPA beads had previously been resuspended in water, but were then diluted 1:3 (v/v) in water. This diluted solution also contained 3 mM 8-methoxymethyl-3-isobutyl-1-methylxanthine (IBMX) to ensure a complete block of PDE activity. Once the beads were sedimented (>30 min), the MTP's were analyzed in commercially available luminescence detection devices. The corresponding IC50 values of the compounds for inhibition of PDE activity were determined from the concentration-effect curves by means of non-linear regression.
as §1

T1 sequence (Q07343 whole entry): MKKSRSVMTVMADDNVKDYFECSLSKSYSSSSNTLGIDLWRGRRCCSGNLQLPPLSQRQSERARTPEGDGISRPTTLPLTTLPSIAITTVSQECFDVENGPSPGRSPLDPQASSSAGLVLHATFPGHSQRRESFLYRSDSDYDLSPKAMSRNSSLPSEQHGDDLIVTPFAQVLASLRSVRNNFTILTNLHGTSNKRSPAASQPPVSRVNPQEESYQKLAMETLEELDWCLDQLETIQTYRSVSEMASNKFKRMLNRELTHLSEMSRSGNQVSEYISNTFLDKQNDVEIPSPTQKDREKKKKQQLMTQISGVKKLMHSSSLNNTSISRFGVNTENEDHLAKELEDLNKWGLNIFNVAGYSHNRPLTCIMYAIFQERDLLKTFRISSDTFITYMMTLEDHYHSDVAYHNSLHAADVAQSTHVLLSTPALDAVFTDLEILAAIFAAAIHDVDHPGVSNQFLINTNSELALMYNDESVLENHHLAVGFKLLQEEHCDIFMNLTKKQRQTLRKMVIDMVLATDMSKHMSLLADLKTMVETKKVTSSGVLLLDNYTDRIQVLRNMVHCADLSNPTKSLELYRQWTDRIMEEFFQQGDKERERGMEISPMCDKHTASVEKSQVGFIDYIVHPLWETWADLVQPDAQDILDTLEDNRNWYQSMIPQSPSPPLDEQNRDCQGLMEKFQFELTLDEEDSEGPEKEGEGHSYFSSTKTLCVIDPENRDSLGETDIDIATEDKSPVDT

Row | Structure (SMILES) | IC50 (PDE4B1) [nM] | IC50 (human PDE5) [nM]
1 | CCOc1ccc(C[C@@H](NC(=O)c2c[nH]c3c(-c4c(OCC5CC5)ccc5c4OCO5)ncnc23)C(=O)N2CCC(N3N=C(c4ccc(OC)c(OC)c4)[C@H]4CCCC[C@H]4C3=O)CC2)cc1 [Example 9, 4-[5-(cyclopropylmethoxy)-1,3-benzodioxol-4-yl]-N-[(2R)-1-{4-[(4aS,8aR)-4-(3,4-dimethoxyphenyl)-1-oxo-4a,5,6,7,8,8a-hexahydrophthalazin-2(1H)-yl]piperidin-1-yl}-3-(4-ethoxyphenyl)-1-oxopropan-2-yl]-5H-pyrrolo[3,2-d]pyrimidine-7-carboxamide] | < 1 | < 1
2 | CCOc1ccc(C[C@@H](NC(=O)c2c(C)[nH]c3c(-c4c(OCC5CC5)ccc5c4OCO5)ncnc23)C(=O)N2CCC(N3N=C(c4ccc(OC)c(OC)c4)[C@H]4CCCC[C@H]4C3=O)CC2)cc1 [Example 10, 4-[5-(cyclopropylmethoxy)-1,3-benzodioxol-4-yl]-N-[(2R)-1-{4-[(4aS,8aR)-4-(3,4-dimethoxyphenyl)-1-oxo-4a,5,6,7,8,8a-hexahydrophthalazin-2(1H)-yl]piperidin-1-yl}-3-(4-ethoxyphenyl)-1-oxopropan-2-yl]-6-methyl-5H-pyrrolo[3,2-d]pyrimidine-7-carboxamide] | < 1 | < 1
3 | COc1ccc(C2=NN(C3CCN(C(=O)[C@@H](Cc4ccc(C(N)=O)cc4)NC(=O)c4c(C)[nH]c5c(-c6c(OCC7CC7)ccc7c6OCO7)ncnc45)CC3)C(=O)[C@@H]3CCCC[C@H]23)cc1OC [Example 11, N-[(2R)-3-(4-carbamoylphenyl)-1-{4-[(4aS,8aR)-4-(3,4-dimethoxyphenyl)-1-oxo-4a,5,6,7,8,8a-hexahydrophthalazin-2(1H)-yl]piperidin-1-yl}-1-oxopropan-2-yl]-4-[5-(cyclopropylmethoxy)-1,3-benzodioxol-4-yl]-6-methyl-5H-pyrrolo[3,2-d]pyrimidine-7-carboxamide] | < 1 | 1 to 10
4 | COc1ccc(C2=NN(C3CCN(C(=O)[C@@H](Cc4ccc(-c5ccccc5)cc4)NC(=O)c4c(C)[nH]c5c(-c6c(OCC7CC7)ccc7c6OCO7)ncnc45)CC3)C(=O)[C@@H]3CCCC[C@H]23)cc1OC [Example 12, N-[(2R)-3-(biphenyl-4-yl)-1-{4-[(4aS,8aR)-4-(3,4-dimethoxyphenyl)-1-oxo-4a,5,6,7,8,8a-hexahydrophthalazin-2(1H)-yl]piperidin-1-yl}-1-oxopropan-2-yl]-4-[5-(cyclopropylmethoxy)-1,3-benzodioxol-4-yl]-6-methyl-5H-pyrrolo[3,2-d]pyrimidine-7-carboxamide] | 1 to 10 | 1 to 10
5 | COc1ccc(C2=NN(C3CCN(C(=O)[C@@H](Cc4ccc(-c5ccccc5)cc4)NC(=O)c4c[nH]c5c(-c6c(OCC7CC7)ccc7c6OCO7)ncnc45)CC3)C(=O)[C@@H]3CCCC[C@H]23)cc1OC [Example 13, N-[(2R)-3-(biphenyl-4-yl)-1-{4-[(4aS,8aR)-4-(3,4-dimethoxyphenyl)-1-oxo-4a,5,6,7,8,8a-hexahydrophthalazin-2(1H)-yl]piperidin-1-yl}-1-oxopropan-2-yl]-4-[5-(cyclopropylmethoxy)-1,3-benzodioxol-4-yl]-5H-pyrrolo[3,2-d]pyrimidine-7-carboxamide] | < 1 | 1 to 10
6 | COc1ccc(C2=NN(C3CCN(C(=O)[C@@H](Cc4ccc(C#N)cc4)NC(=O)c4c(C)[nH]c5c(-c6c(OCC7CC7)ccc7c6OCO7)ncnc45)CC3)C(=O)[C@@H]3CCCC[C@H]23)cc1OC [Example 14, N-[(2R)-3-(4-cyanophenyl)-1-{4-[(4aS,8aR)-4-(3,4-dimethoxyphenyl)-1-oxo-4a,5,6,7,8,8a-hexahydrophthalazin-2(1H)-yl]piperidin-1-yl}-1-oxopropan-2-yl]-4-[5-(cyclopropylmethoxy)-1,3-benzodioxol-4-yl]-6-methyl-5H-pyrrolo[3,2-d]pyrimidine-7-carboxamide] | 1 to 10 | > 10
7 | COc1ccc(C2=NN(C3CCN(C(=O)[C@@H](Cc4ccc(C)cc4)NC(=O)c4c(C)[nH]c5c(-c6c(OCC7CC7)ccc7c6OCO7)ncnc45)CC3)C(=O)[C@@H]3CCCC[C@H]23)cc1OC [Example 15, 4-[5-(cyclopropylmethoxy)-1,3-benzodioxol-4-yl]-N-[(2R)-1-{4-[(4aS,8aR)-4-(3,4-dimethoxyphenyl)-1-oxo-4a,5,6,7,8,8a-hexahydrophthalazin-2(1H)-yl]piperidin-1-yl}-3-(4-methylphenyl)-1-oxopropan-2-yl]-6-methyl-5H-pyrrolo[3,2-d]pyrimidine-7-carboxamide] | < 1 | 1 to 10
8 | COc1ccc(C2=NN(C3CCN(C(=O)[C@@H](Cc4ccc(C#N)cc4)NC(=O)c4c[nH]c5c(-c6c(OCC7CC7)ccc7c6OCO7)ncnc45)CC3)C(=O)[C@@H]3CCCC[C@H]23)cc1OC [Example 16, N-[(2R)-3-(4-cyanophenyl)-1-{4-[(4aS,8aR)-4-(3,4-dimethoxyphenyl)-1-oxo-4a,5,6,7,8,8a-hexahydrophthalazin-2(1H)-yl]piperidin-1-yl}-1-oxopropan-2-yl]-4-[5-(cyclopropylmethoxy)-1,3-benzodioxol-4-yl]-5H-pyrrolo[3,2-d]pyrimidine-7-carboxamide] | 1 to 10 | 1 to 10
